# Patent US20060263355A1, “Treatment of bone disorders” (priority 2005, published 2006)
# What was measured:
# [1] = test system: serological markers of inflammation and bone turnover; assay: Serum biochemical markers in RA patients, Phase IIa study of rituximab; assay type: in vivo, human; conditions: week 24 vs baseline, n = 40
# Protocol: Serum samples were analyzed from RA+ patients who received either methotrexate (MTX) alone or MTX in combination with a single course of rituximab as part of a Phase IIa study of rituximab in RA to be reported elsewhere. The following markers were measured at baseline and Week 24: anti-CCP, CRP, S100, SAA, PINP and Osteocalcin (OC).
# Biomarker data were analyzed using a non-parametric approach by comparing the percentage changes at 24-weeks from baseline in MTX group with the RTX+MTX group. The median percent change from baseline was plotted using the following formula: Pcfb1(marker)=((slope—lr*study time at last visit)/intercept—lr)*100
# where slope_lr=slope of linear regression for each patient • intercept_lr=intercept of linear regression for each patient.
# [2] = cited from earlier work; for effect in rat adjuvant / experimental arthritis: in vivo
# [3] = ACR50 clinical response in RA, Phase IIa study of rituximab; assay type: in vivo, human; conditions: two infusions of rituximab two weeks apart with ongoing MTX, versus MTX alone
# [4] = Bone remodeling in animals (Example 2); conditions: rats, subcutaneously once per day for 35 days
# [5] = Periodontal disease model (Example 5); assay type: in vivo; conditions: applied to the periodontal pocket
# Protocol: Rituximab may be used to regenerate bone and ligament lost to periodontal disease. In this model teeth showing 20% to 80% reduction of surrounding jaw bone are scaled, then a full-thickness gingival flap is made by an incision to expose the jaw bone and tooth root. The root is planed to remove bacterial plaque and calculus. Rituximab is applied to the periodontal pocket in a 2.5% HPMC gel at a dose of […] per tooth, or alternatively a solution of rituximab in 100 mM sodium acetate buffer, pH 6.0 is added to powdered bone to provide a dosage of […] rituximab per tooth. The material is thoroughly mixed and applied to the exposed periodontal pocket. In both cases, the gingival flap is then closed and held in place by suturing.
# [6] = test system: TRAP-positive osteoclasts; assay: TRAP assay, osteoclasts formed in vitro (Example 4)
# Protocol: TRAP refers to tartrate-resistant acid phosphatase that identifies osteoclast-like cells.
# In this test, naphthol AS-MX phosphate 5 mg (Sigma, St. Louis, Mo.) is resolved in 0.5 ml of N,N-dimethylformamide (Wako). Thirty milligrams of fast red violet LB salt (Sigma) and 50 ml of 0.1 M sodium acetate buffer (pH 5.0) containing 50 mM sodium tartrate are added to the mixture (the TRAP-staining solution). Cells are fixed with 3.7% (v/v) formaldehyde in Ca^2− and Mg^2+-free phosphate-buffered saline for 10 min, fixed again with ethanol-acetone (50:50, v:v) for 1 min, and incubated with the TRAP-staining solution for 10 min. at room temperature. TRAP-positive osteoclasts appear as red cells. The incubation period should not exceed 10 min. since cells other than osteoclasts become weakly positive with time. After staining, cells are washed with distilled water, and TRAP-positive multinucleated cells having three or more nuclei are counted as osteoclasts under a microscope (Nicholson et al., J. Clin. Invest. 78: 355 (1986)).
# lymphoid B-cell lines = conditions: cited from earlier work
# [7] = pH 5; cited from earlier work
# [8] = in vivo; cited from earlier work
# [9] = test system: serological markers of inflammation and bone turnover; assay: Serum biochemical markers in RA patients, Phase IIa study of rituximab; assay type: in vivo, human; conditions: RA patients treated with rituximab
# [10] = in vivo; cited from earlier work; remark: listed apart in the source
# B cells = conditions: cynomolgus monkey; cited from earlier work
molecule,measurement,setting,value
"CN(Cc1cnc2nc(N)nc(N)c2n1)c1ccc(C(=O)N[C@@H](CCC(=O)O)C(=O)O)cc1 [MTX, methotrexate]","Anti-CCP (anti-citrullinated peptide antibody), median % change from baseline at 24 weeks",[1],−21.03%
same,"CRP (C-reactive protein), median % change from baseline at 24 weeks",[1],−22.21%
same,"OC (osteocalcin), median % change from baseline at 24 weeks",[1],1.94%
same,"P-1NP (procollagen type 1 N-terminal propeptide), median % change from baseline at 24 weeks",[1],−11.78%
same,"S100 (S100 A8/9), median % change from baseline at 24 weeks",[1],−14.31%
same,"SAA (serum amyloid A), median % change from baseline at 24 weeks",[1],−10.55%
O=P(O)(O)C(O)(Cc1cccnc1)P(=O)(O)O [NE58095],effect in rat adjuvant / experimental arthritis,[2],prevents bone erosion and preserves joint architecture
O=P(O)(O)C(O)(Cn1ccnc1)P(=O)(O)O [Zoledronate],effect in rat adjuvant / experimental arthritis,[2],protects against meta hyseal intracortical defets
O=P(O)(O)C(Cl)(Cl)P(=O)(O)O [clodronate],effect in arthritis study at 20 mg/kg/day iv infusion,[2]; 20 mg/kg/day iv infusion,"decreases pedal inflammation and bone resorption, but also inhibits bone formation"
same,effect in rat adjuvant / experimental arthritis,[2],"decrease weight loss, pedal inflammation, and bone resorption"
CC(O)(P(=O)(O)O)P(=O)(O)O [etridronate],effect in rat adjuvant / experimental arthritis,[2],"decrease weight loss, pedal inflammation, and bone resorption"
Rituximab + MTX: MTX in combination with a single course of rituximab,ACR50 response at 24 weeks,[3],significantly higher clinical responses
same,"Anti-CCP (anti-citrullinated peptide antibody), median % change from baseline at 24 weeks",[1],−45.78%
same,"CRP (C-reactive protein), median % change from baseline at 24 weeks",[1],−59.07%
same,"OC (osteocalcin), median % change from baseline at 24 weeks",[1],28.76%
same,"P-1NP (procollagen type 1 N-terminal propeptide), median % change from baseline at 24 weeks",[1],13.64%
same,"S100 (S100 A8/9), median % change from baseline at 24 weeks",[1],−52.73%
same,"SAA (serum amyloid A), median % change from baseline at 24 weeks",[1],−77.02%
"humanized 2H7: humanized CD20 antibody, or antigen-binding fragment, comprising at least CDR H3 of SEQ ID NO:12 and human VHIII framework",bone remodeling versus controls,[4],effective in enhancing bone remodeling over the controls
same,regeneration of surrounding jaw bone versus placebo,[5],at least partially regenerated
same,performance as positive control in TRAP assay,[6],effective as a positive control
rituximab,complement-dependent cytotoxicity (CDC),lymphoid B-cell lines,lyses lymphoid B-cell lines
same,minimum shelf life,[7],two
same,bone remodeling versus controls,[4],effective in enhancing bone remodeling over the controls
same,patients admitted to the hospital for overnight observation after moderate fever and rigors following the first infusion,[8],1 of 10
same,Total immunoglobulin levels,[9],not affected significantly
same,regeneration of surrounding jaw bone versus placebo,[5],at least partially regenerated
same,performance as positive control in TRAP assay,[6],effective as a positive control
same,patients experiencing at least one adverse event during their first infusion,[10],36%
same,B-cell depletion in vivo,B cells,"depletes B cells from the peripheral blood, lymph nodes, and bone marrow"
